Patent publication US8865122B2, “Methods and compositions for protein labelling” (Genentech, Inc., priority 2009, dated 2014)
Values belong to the compound of their own block, whether it stands above or below them.

How the values were obtained:
[1] = tested on: Hsp90; experiment: Hsp90 targeted therapy (17-AAG) treatment response monitored by microPET; assay type: in vivo, Beige nude XID mice
Procedure: Hsp90 targeted therapy and microPET imaging. Mice were distributed into two groups (n=4) according to tumor uptake and volume as determined by ^18F-4D5ThioFab one day prior to 17-AAG treatment (Gill et al (2009) Jour. Med. Chem. 52(19):5816-5825). 17-AAG was administered to the treated group at day 0, while the control group animals were left untreated. PET imaging with ^18F-4D5ThioFab was performed at day 1 (fourteen hours after the administration of the last 17-AAG dose), day 5, and day 7. Coronal slices through the tumor of control animals and animals treated with 17-AAG one day before and one day after therapy are shown in FIG. 5a. […] The renal clearance of ^18F-4D5ThioFab was predominant with significant accumulation of radioactivity in the bladder and high uptake in the renal cortex (Table 3). The hepatobiliary route also contributed to tracer excretion leading to accumulation of radioactive metabolites in the large intestine and gall bladder while the retention of radioactivity in the liver was relatively low. […]
Mice were anesthetized with 3% sevoflurane and inoculated i.v. via the tail vein catheter with 0.3-0.4 mCi of ^18F-Thio4D5Fab in isotonic solution (50-100 μL). […] Body temperature was measured by a rectal probe and maintained by warm air. […]

[2] = tested on: HER2; conditions: after 17-AAG, BT474 xenograft, cited from earlier work
[3] = water solubility observation; assay type: physicochemical
Description: 4 or [^18F]FPEG4N3 with methods B and C. […] Therefore, method C may be well suited for general radiochemical application facilitating the development of a consistent radiochemical process for the production of a variety of ^18F-labeled prosthetic groups. This may have strong implications for automation and may eliminate the need for dedicating a synthesis module to a specific prosthetic group, as is the case with [^18F]SFB.

[4] = lipophilicity (log P) measurement; assay type: physicochemical; conditions: pH 7.4
Procedure: After SPE treatment, method B provided [^18F] 5 with a yield of 59±4%, a radiochemical purity of 94%, and a specific activity of 5.1±1.5 Ci/μmol (determined against an HPLC standard curve of ^19F-labeled 5) in 47±1 min (n=5). The identity of [^18F] 5 was confirmed by HPLC co-elution with ^19F-labeled standard and by LC/MS analysis of the decayed product. The lipophilicity (log P) of [^18F]5 (−2.41±0.09) was measured at pH 7.4 consistent with published methods (Rodionov et al (2007) J Am Chem Soc 129:12705-12).

SMILES: C=CCNC1=C2C[C@@H](C)C[C@H](OC)[C@H](O)[C@@H](C)/C=C(\C)[C@H](OC(N)=O)[C@@H](OC)/C=C\C=C(/C)C(=O)NC(=CC1=O)C2=O [Compound 17-AAG, 17-(allylamino)-17-demethoxygeldanamycin]
reduction in tumor uptake of ^18F-4D5ThioFab ([1]; day 1 after 17-AAG (three 50 mg/kg i.p. doses), compared to control group and day −1, BT474M1 xenograft): 50%
rebound of HER2 expression ([1]; day 5 after 17-AAG, ^18F-4D5ThioFab tumor uptake): 100%
return of HER2 to pretreatment levels ([2]; ^68Ga-DCHF (Smith-Jones et al)): 12 days
reduction in HER2 levels ([2]; imaged with ^68Ga-DCHF (Smith-Jones et al)): 70%

SMILES: [N-]=[N+]=NCCOCC[18F] [[^18F]FPEG2N3]
water solubility [3]: limited water solubility

logP [4]: -2.41 ± 0.09
SMILES: O=C1C=CC(=O)N1CCOCCOCCOCCOCCOCCOCc1cn(CCOCCOCCOCCOCCOCCOCCOCC[18F])nn1 [[^18F]5]
